According to patent publication US5948635A, “Totally Synthetic Affinity Reagents” (University of North Carolina at Chapel Hill, priority 1995, dated 1999):
No end group written: not given here.

Columns and labels:
B139 monoclonal antibody [1] = assay: Competitive binding ELISA: inhibition of B139 binding to LNCaP extract; design: species or system murine; details: B139 9 ng/ml; FIG. 13
Procedure: (§1) The TSAR-based peptide (SEQ ID NO 31) concentration ranged from 1.75 to 1130 nM. […] Two additional control peptides (amide form) having the following amino acid sequences: RGD-21: NH2 -[…]-CONH2 (SEQ ID NO 32) and CYT-379: NH2 -[…]-CONH2 (SEQ ID NO 33) were also evaluated. Herein these control peptides are referred to as Control Peptide 1 and Control Peptide 2. […] The B139 monoclonal antibody, which is a murine IgG1 monoclonal antibody that reacts with all human epithelial cells, recognizes a different antigen in the LNCaP extract from that recognized by the 7E11-C5 antibody. The control B139 monoclonal antibody was used at a concentration of 9 ng/ml. The results obtained are illustrated in FIG. 13.

[2] = test system: 7E11-C5 monoclonal antibody; assay: ELISA of antibody binding to immobilized peptide; design: species or system mouse; details: peptide adsorbed on polyvinylchloride plates, 0.5-500 μg/ml; FIG. 14, 15
Procedure: (§2) Peptides, diluted in 10% PBS (Dulbecco's, pH 7.2, Hazelton), were immobilized by adsorption on polyvinylchloride plates. SEQ ID NO 31 (amide form) was diluted in 10% PBS at 0.5, 5, 50 or 500 μg/ml. Control peptide 2 in 10% PBS at the same range of concentrations served as the control. A 50 μl volume of the test or control peptide solution was added to each well and incubated overnight at 4° C. The peptide solution was removed and 10% BSA-PBS was added as blocking solution. […] Bound 7E11-C5 monoclonal antibody was detected with anti-mouse IgG1 -HRP as described above herein.

B139 monoclonal antibody [3] = assay: ELISA of control antibody binding to immobilized peptide; design: species or system murine; details: peptide coated at 5 μg/ml; FIG. 15
Procedure: as §2

[4] = test system: 7E11-C5 monoclonal antibody; assay: Competitive binding ELISA: inhibition of 7E11-C5 binding to LNCaP cell lysate antigen; design: species or system mouse; details: for competitive inhibition of 7E11-C5 binding to LNCaP extract by peptide: peptides, amide form, FIG. 13; for inhibition of 7E11-C5 binding to its antigen by phage: phage 6.3×10^7 to 6.3×10^11 pfu, 7E11-C5 30 ng/ml
Procedure: Each well of a polyvinylchloride 96-well ELISA plate (Cooke, Alexandria, Va.) was coated with an LNCAP human prostate carcinoma cell (ATCC # CRL 1740) lysate. Lysates were prepared by harvesting confluent LNCaP cell cultures, resuspending cells in 4 volumes of 1 mM MgCl2 for 5 minutes, mixing with 2 μg of DNase (Boehringer Mannheim, Indianapolis, Ind.) and homogenizing using 40 strokes in a Dounce homogenizer (Wheaton, Millville, N.J.). LNCaP lysate (50 μl per well of a 1:50 dilution in 0.1×PBS [Dulbecco's pH 7.2, JRH, Denver, Pa.]) was air dried overnight at 37° C. onto wells of the ELISA plate. ELISA plates were blocked with 150 μl/well of 1% BSA (Pentex Fraction V, Miles, Kankakee, Ill.) in PBS for 60 minutes at room temperature.
The blank control consisted of blocking solution in the absence of primary antibody. 7E11-C5 monoclonal antibody pre-incubated with buffer without any phage (MAb) was the positive control. The expression vector m663 phage was also employed as a non-specific phage control.
Plates were washed 4 times with 0.05% Tween-20 in PBS. Bound monoclonal antibody 7E11-C5 was detected by: (1) incubating with 50 μl/well of anti-mouse IgG1 -HRP (Fisher Biotech, Orangeburg, N.Y.) diluted to 0.4 ng/ml in 1% BSA-PBS, for 60 minutes at room temperature; (2) washing plates 6 times with 0.05% Tween-20 in PBS; and (3) adding 100 μl/well ABTS substrate [200 μl ABTS, (Boehringer Mannheim), 10 ml citrate buffer (pH 4), 10 μl H2 O2 ]. Optical density of the reactions products was determined by endpoint analysis on a Multiscan plate reader (Molecular Devices, Menlo Park, Calif.). The competitive inhibition (%) was determined by comparing the reactivity of the positive control to the test samples.
as §1

streptavidin = biological target: T1, streptavidin (Streptomyces avidinii, UniProt P22629); assay: Inhibition of TSAR binding to streptavidin by biotin and biotin analogs; details: for IC50: representative TSARs SA-1, -2, -4 and -14
T1 construct: purchased Advanced Magnetics, Cambridge, Mass
T1 sequence (P22629 25-183): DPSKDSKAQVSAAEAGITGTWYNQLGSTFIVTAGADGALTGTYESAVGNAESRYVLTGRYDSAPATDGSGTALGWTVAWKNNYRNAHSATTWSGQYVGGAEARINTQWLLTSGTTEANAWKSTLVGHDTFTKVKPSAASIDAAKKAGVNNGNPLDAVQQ
Procedure: Specificity of the binding of the identified proteins for streptavidin was investigated by evaluating inhibition of binding by biotin and by a number of biotin analogs, including diaminobiotin, immunobiotin, lipoic acid and imidazalidone. Four representative TSARs, pictured in Table 9, were evaluated, i.e., SA-1,-2, -4 and -14 (SEQ ID NOs. 116, 114, 104 and 117).

7E11-C5 antibody = assay: Relative affinity: phage binding to microtiter plates coated with differing amounts of 7E11-C5; design: species or system mouse; details: plates coated with 0, 4, 20, 100 and 500 ng antibody
Procedure: The relative affinity of the different 7E11-C5 binding TSARs for the 7E11-C5 antibody was compared. Microtiter plates were coated with differing amounts of the antibody (i.e., 0, 4, 20, 100 and 500 ng) prior to phage binding. Our prediction was that the TSAR with the highest affinity for the antibody would still bind effectively to wells coated with lower amounts of antibody. […] These TSARs all have Y as the second amino acid in the motif. The next class of TSARs bound ~2-fold less well; as represented by 12-2, which also had Y as the second amino acid. Three TSARs bound 5-10 fold less well than the best binders as represented by 9-2, 9-4, and 12-4; their inserts had W or H at the second position of the motif. Finally, TSAR 12-3 bound 50-fold less well than the best binders; this TSAR has I and R in the second and sixth positions, respectively. Thus, it seems that the 7E11-C5 epitope can be mimicked by a linear peptide sequence that has both variant and invariant residues.

[5] = Immobilized metal affinity chromatography of phage on Zn(II)-IDA; assay type: binding; details: for relative retention by Zn(II)-IDA: comparison of four clones
Procedure: The TSAR-9 random peptide library was subjected to IMAC chromatography as follows: 0.5 ml bed volume iminodiacetic acid (IDA) Sepharose (Sigma Chemical Co.) columns were washed with 1 ml of sterile doubly distilled (dd) H2 O, charged with 5 ml of 10 mM ZnCl2 in dd H2 O followed by 3 ml sterile dd H2 O and equilibrated with 10 ml 10 mM Tris-HCl, 150 mM NaCl, 0.1% Tween-20, pH 7.5 (T10NT) to prepare the Zn(II) IDA column. 10^12 pfu of the TSAR-9 random peptide library were passed over the Zn(II) IDA column and washed with 10 ml T10NT. Bound phage were eluted with 500 μl 200 mM glycine-HCl, pH 2.2 and the pH was then neutralized with 500 μl 1 M phosphate buffer, pH 7.5+1 ml T10NT. Eluted phage were subjected to two further rounds of selection and the resulting population was amplified by overnight growth on a lawn of E. coli DH5αF'.
To quantitate the relative binding of the Zn(II)-IDA selected TSARs, each TSAR encoding phage was chromatographed over Zn(II)-IDA. Three fractions were collected and titered for phage: wash (unbound), elution (bound, eluted), and column (bound, not eluted).
The binding specificity of a number of the identified Zn-binding proteins was evaluated by chromatography using IDA columns charged with Zn^+2, Cu^+2 or Ni^+2. A particular Zn-binding phage (10×10^11 pfu) in 1 ml of 100 mM Tris-HCl, 150 mM NaCl, 0.1% Tween-20, pH 7.5 (T100NT) was loaded onto a Zn(II)-, Cu(II)- or Ni(II)-IDA column and the columns were washed as described above, except that T100NT was substituted for T10NT. The columns were eluted with acid; Zn^+2 (2 ml 100 mM ZnCl2 in T1OONT, pH 7.5), or imidazole (2 ml 100 mM imidazole in T100NT, pH 7.5). Three fractions were collected and titered for the presence of phage: the wash fraction (.box-solid.), the elution fraction and the metal II-IDA column matrix resuspended in T10NT (.quadrature.).Results obtained are shown in FIG. 16 A and B.

C46 monoclonal antibody = assay: Competition of CEA with phage for binding to immobilized C46 antibody; design: species or system mouse; details: CEA 1, 25, 250, 2500 ng; FIG. 17
Procedure: Microtiter dish wells were coated with 50 μl of the C46 monoclonal antibody (5 μg/ml in 100 mM NaHCO3, pH 8.5) for 2 hr at 4° C. To the wells, 50 μl of BSA (1 mg/ml in 100 mM NaHCO3, pH 8.5) were added and the wells incubated for 30 min. at room temperature. The wells were washed (5×) with PBS-0.05% Tween 20.
To each well was added either 25 μl of C46-binding phage (C46.9-1 or C46.9-2) and increasing amounts of highly purified CEA (1, 25, 250, 2500 ng) (Scripps Clinic). After 2 hr incubation at room temperature, the wells were washed (10×) with PBS-0.05% Tween 20. 25 μl of 200 mM glycine-HCl (pH 2.2) were then added to the wells and they were incubated at room temperature for 5 min. The liquid was then transferred to new microtiter dish wells that contained 50 μl of 1M NaHPO4. The contents of the well were then serially diluted and aliquots were plated to count plaques.

## PSYYRGDAGPSYYRGDAG-NH2 [Control Peptide 1]
B139 monoclonal antibody [1]
  competitive inhibition of B139 binding to LNCaP extract by peptide: neither SEQ ID NO 31 (amide form) nor either of Control Peptide 1 and Control Peptide 2 competitively inhibited the binding
[2]
  binding of 7E11-C5 to immobilized peptide: did not bind to either of the tested antibodies
B139 monoclonal antibody [3]
  binding of B139 to immobilized peptide: did not bind to either of the tested antibodies
[4]
  competitive inhibition of 7E11-C5 binding to LNCaP extract by peptide: did not effectively compete

## PDYDLMSSTCRFYGCSKMPGGVAVNGLFAVQGHSKYSS [SA-1]
streptavidin
  inhibition of TSAR binding to streptavidin by biotin and all the biotin analogs tested: completely inhibited

## SSCAYARYVPLLLLLYANPG MYSRLH SPAVRPLTQSSA [7E11.9-1]
[4]
  inhibition of 7E11-C5 binding to its antigen by phage: also inhibited 7E11-C5 monoclonal antibody binding
7E11-C5 antibody
  relative binding to 7E11-C5 (fold less well than the best binders): bound the best

## N=C1N[C@H]2[C@H](CS[C@H]2CCCCC(=O)O)N1 [immunobiotin]
streptavidin
  IC50: ~3 µM

## O=C(O)CCCC[C@@H]1CCSS1 (racemic) [lipoic acid]
streptavidin
  IC50: ~1050 µM

## HSYHDVATTKPGSHCMHNPGHPPPPNCHMAKAHSHNRI [Zn1A12]
[5]
  relative retention by Zn(II)-IDA: exhibit the least retention

## TVAT MHDTLH SAPGSGNLPGSYDIKPIFKASGALHSTX^2 [7E11.9-4]
7E11-C5 antibody
  relative binding to 7E11-C5 (fold less well than the best binders): 5-10 fold

## PVQKEYGFFMSGAS MIRLLR ETP [7E11.12-3]
7E11-C5 antibody
  relative binding to 7E11-C5 (fold less well than the best binders): 50 fold

## RDSAVENPSVGGEIP MYRYLH QR [7E11.12-2]
7E11-C5 antibody
  relative binding to 7E11-C5 (fold less well than the best binders): ~ 2 fold

## ATEQHYWTQYHKPYHPSVPGFHVKSVTETTDHWESRNG [Zn1B8]
[5]
  relative retention by Zn(II)-IDA: exhibit the least retention
  retention on Zn(II)-IDA, of recovered phage: 85%

## IAHRVVAYNSLDSNPIWLPGEESSSVFGDY HPMF RAPV [SA-4]
streptavidin
  inhibition of TSAR binding to streptavidin by biotin and all the biotin analogs tested: completely inhibited

## N[C@@H]1[C@H](CCCCC(=O)O)SC[C@@H]1N [diaminobiotin]
streptavidin
  IC50: ~0.2 µM

## NH2 -SYGRGDVRGDFKCTCCA-CONH2 (H-SYGRGDVRGDFKCTCCA-NH2; cysteine pairing not given here) [Control Peptide 2]
B139 monoclonal antibody [1]
  competitive inhibition of B139 binding to LNCaP extract by peptide: neither SEQ ID NO 31 (amide form) nor either of Control Peptide 1 and Control Peptide 2 competitively inhibited the binding
[2]
  binding of 7E11-C5 to immobilized peptide: did not bind to either of the tested antibodies
B139 monoclonal antibody [3]
  binding of B139 to immobilized peptide: did not bind to either of the tested antibodies
[4]
  competitive inhibition of 7E11-C5 binding to LNCaP extract by peptide: did not effectively compete

## FDHTYSGPVCVKNGGLVSPGVLS MYNRLH SDGGPSLAS [7E11.9-3]
7E11-C5 antibody
  relative binding to 7E11-C5 (fold less well than the best binders): bound the best

## CNFRGQCVSAPQTSNSKSPGWDTTWHDFRKEQFYNLTS [C46-9.2]
C46 monoclonal antibody
  competition with CEA for binding to the C46 antibody: competitive binding

## YDHHSYNGDMHYPGWPPLPGPHHFAPIDVTTHSHTQPD [Zn1A1]
[5]
  retention on Zn(II)-IDA, of recovered phage: 15%

## RLGNVWRVEGGG MYQQLH HNFPX^2 [7E11.12-1]
[4]
  inhibition of 7E11-C5 binding to its antigen by phage: inhibited the binding of 7E11-C5 monoclonal antibody to its antigen, in a dose dependent fashion
7E11-C5 antibody
  relative binding to 7E11-C5 (fold less well than the best binders): bound the best

## SVQFKSISSRSMDDVVKDPGPKPA MWKMLH SKNPFTLS [7E11.9-2]
7E11-C5 antibody
  relative binding to 7E11-C5 (fold less well than the best binders): 5-10 fold

## QKGGPGLLLYGGDS MWITLH EPG [7E11.12-4]
7E11-C5 antibody
  relative binding to 7E11-C5 (fold less well than the best binders): 5-10 fold

## imidazalidone
streptavidin
  IC50: ~5000 µM

## IDMPETAST MYNMLH RNEPGGRKLSPPANDMPPALLKR [7E11.9-5]
[4]
  inhibition of 7E11-C5 binding to its antigen by phage: inhibited the binding of 7E11-C5 monoclonal antibody to its antigen, in a dose dependent fashion
7E11-C5 antibody
  relative binding to 7E11-C5 (fold less well than the best binders): bound the best

## NAVRVDSGYPPNPNTFHLPGCIDVLSSGCRLFSAHSEY [C46-9.1]
C46 monoclonal antibody
  competition with CEA for binding to the C46 antibody: competitive binding
